In patent publication US7576198B1, “Integrase inhibitors containing aromatic heterocycle derivatives” (Shionogi & Co., Ltd., priority 1999, dated 2009):
Like-named read-outs stand apart in the source and are kept apart here.

Target: HIV-1 integrase (Human immunodeficiency virus type 1 group M subtype B, UniProt P04585)
Assay: HIV-1 integrase inhibition assay (microtiter plate, substrate DNA/target DNA, OD 405 nm)
Format: biochemical
Details: for IC50: HIV-1 integrase, concentration of the compound at percent inhibition 50%, OD 405 nm; for inhibitory effect for HIV-1 integrase, stated in words (compound having high activity): besides the compounds of the IC50 table
Description: The inhibitory effects of the compounds of the present invention for HIV-1 integrase have been determined by the assay described below.
(1) Preparation of DNA solutions.
Substrate DNA and target DNA, which sequences were indicated below, were synthesized by Amersham Pharmacia Biotech and dissolved in KTE buffer (composition: 100 mM KCl, 1 mM EDTA, 10 mM Tris-HCl (pH 7.6)) at concentration of 2 pmol/μl and 5 pmol/μl, respectively. The DNA solutions were annealed with each complement by slowly cooling after heating.
(Substrate DNA) • 5′-Biotin-ACCCTTTTAGTCAGTGTGGAAAATCTCTAGCAGT-3′ • 3-GAAAATCAGTCACACCTTTTAGAGATCGTCA-5′
5′-TGACCAAGGGCTAATTCACT-Dig-3′
3′-Dig-ACTGGTTCCCGATTAAGTGA-5′
(2) Calculations of the percent inhibitions (the IC50 values of test compounds)
Streptavidin, obtained from Vector Laboratories, was dissolved in 0.1 M carbonate buffer (composition: 90 mM Na2CO3, 10 mM NaHCO3) at concentration of 40 μg/ml. After coating each well of microtiter plates (obtained from NUNC) with 50 μl of the above solution at 4° C. over night, each well was washed twice with PBS (composition: […], 0.27 mM KCl, 0.43 mM Na2HPO4, 0.14 mM KH2PO4) and blocked with 300 μl of 1% skim milk in PBS for 30 min. Additionally, each well was washed twice with PBS and added 50 μl of substrate DNA solution (2 pmol/μl). The microtiter plates were kept at room temperature for 30 min. Then, each well was washed twice with PBS and once with H2O.
Subsequently, in the each well prepared above were added 45 μl of the reaction buffer prepared from 12 μl of the buffer (composition: 150 mM MOPS (pH 7.2), 75 mM MnCl2, 50 mM 2-mercaptoethanol, 25% glycerol, 500 μg/ml bovine serum albumin-fraction V), 1 μl of target DNA (5 pmol/μl), and 32 μl of the distilled water. Additionally, 6 μl of either a test compound in DMSO or DMSO for positive control (PC) was mixed with the above reaction buffer, then 9 μl of an integrase solution (30 pmol) was added and mixed well. In the well of negative control (NC) was added 9 μl of the integrase dilution buffer (composition: 20 mM MOPS (pH7.2), 400 mM potassium glutamate, 1 mM EDTA, 0.1% NP-40, 20% glycerol, 1 mM DTT, 4M urea).
The microtiter plates were incubated at 30° C. for 1 hour. The reaction solution was removed and each well was washed twice with PBS. Subsequently, each well of the microtiter plates was filled with 100 μl of anti-digoxigenin antibody labeled with alkaline phosphatase (Sheep Fab fragment: obtained from Boehringer) and incubated at 30° C. for 1 hour. Then, each well was washed twice with 0.05% Tween20 in PBS and once with PBS. Next, 150 μl of the Alkaline phosphatase reaction buffer (composition: 10 mM p-Nitrophenylphosphate (obtained from Vector Laboratories), 5 mM MgCl2, 100 mM NaCl, 100 mM Tris-HCl (pH 9.5)) was added in each well. The microtiter plates were incubated at 30° C. for 2 hours and the reaction was terminated by the addition of 50 μl of 1 N NaOH solution. The optical density (OD) at 405 nm of each well was measured and the percent inhibition was determined by the following expression. The percent inhibition (%)=100[1−{(C abs.−NC abs.)/(PC abs.−NC abs.)}] • C abs.; the OD of the well of the compounds • NC abs. the OD of the negative control (NC) • PC abs.: the OD of the positive control (PC)
The following Compounds (X-1 to 3) were used in order to compare an activity of the present compound with that of the compounds (X-1 to 3). Compound No. in the Table 1 is the same as compound No. of the above example.

[1] = read-out: IC50 (μg/ml) (converted)

| SMILES | IC50 [1] | inhibitory effect for HIV-1 integrase, stated in words (compound having high activity) | other results |
| --- | --- | --- | --- |
| O=C(O)/C(O)=C/c1cnc(CCc2ccccc2)cn1 [Compound I-27, 3-[5-(2-Phenylethyl)pyradin-2-yl]-2-hydroxy acrylic acid] | 2520 nM | – | – |
| O/C(=C\c1cc(CCc2ccccc2)ncn1)c1ccccn1 [Compound I-111] | – | high activity | – |
| OC(=Cc1ccc(OCc2ccccc2)cn1)c1nccs1 [Compound I-15, 2-(5-Benzyloxypyridin-2-yl)-1-thiazol-2-yl ethenol] | 10200 nM | – | – |
| O/C(=C\c1cc(CCc2ccc(F)cc2)ncn1)c1ncccn1 [Compound I-109] | – | high activity | – |
| CCOC(=O)C(O)=Cc1ccc(OCc2ccc(F)cc2F)cn1 [Compound I-46, 3-[5-(2,4-Difluorobenzyloxy)pyridin-2-yl]-2-hydroxy acrylic acid ethyl ester] | 1640 nM | – | – |
| O=C(O)/C(O)=C/c1ccc(OCC2CCCCC2)cn1 [Compound I-7, 3-[5-(Cyclohexylmethoxy)pyridin-2-yl]-2-hydroxy acrylic acid] | 4690 nM | – | – |
| CCOC(=O)C(O)=Cc1cc(CCc2ccccc2)ncn1 [Compound I-24, 3-[6-(2-Phenylethyl)pyrimidin-4-yl)-2-hydroxy acrylic acid ethyl ester] | 1010 nM | – | – |
| O=C(O)/C(O)=C/c1ccc(OCc2ccccc2)cc1 [Compound X-3, reference compound] | > 370000 nM | – | – |
| O=C(O)C(=O)c1c(F)ccc(COc2ccc(C=C(O)C(=O)O)nc2)c1F [Compound I-17, 3-[5-(3-Carboxyoxalyl-2,4-difluorobenzyloxy)-pyridin-2-yl]-2-hydroxy acrylic acid] | – | – | IC50: 3.4 µg/mL |
| COc1cc(/C=C(\O)C(=O)O)ccc1OCc1ccccc1 [Compound X-1, reference compound] | > 333000 nM | – | – |
| O=C(O)/C(O)=C/c1nnc(CCc2ccccc2)s1 [Compound I-35, 3-[5-(2-Phenylethyl)[1,3,4]thiadiazol-2-yl)-2-hydroxy acrylic acid] | 1590 nM | – | – |
| O=C(O)C(O)=Cc1cc(CCc2ccccc2)ncn1 [Compound I-25, 3-[6-(2-Phenylethyl)pyrimidin-4-yl)-2-hydroxy acrylic acid] | 481 nM | – | – |
| O=C(O)/C(O)=C/c1ncc(CCc2ccccc2)o1 [Compound I-117] | – | high activity | – |
| CCOC(=O)C(O)=Cc1ccc(OCc2ccccc2)cn1 [Compound I-2, 3-(5-Benzyloxypyridin-2-yl)-2-hydroxy acrylic acid ethyl ester] | 1770 nM | – | – |
| O=C(O)c1ccc(/C(O)=C/c2cc(CCc3ccccc3)ncn2)nc1 [Compound I-114] | – | high activity | – |
| O=C(O)/C(O)=C/c1cc(C(F)Cc2ccccc2)ncn1 (stereo not shown) [Compound I-115] | – | high activity | – |
| O/C(=C\c1cc(CCc2ccccc2)ncn1)c1ncccn1 [Compound I-110] | – | high activity | – |
| OC(=Cc1ccc(OCc2ccccc2)cn1)c1nc[nH]n1 [Compound I-14, 2-(5-Benzyloxypyridin-2-yl)-1-(1H-[1,2,4]triazol-3-yl) ethenol] | 3230 nM | – | – |
| O=C(O)/C(O)=C/c1ncc(CCc2ccccc2)s1 [Compound I-119] | – | high activity | – |
| O=C(O)/C(O)=C/c1ccc(OCc2ccc(C(F)(F)F)cc2)cn1 [Compound I-49, 3-[5-(4-Trifluoromethylbenzyloxy)pyridin-2-yl]-2-hydroxy acrylic acid] | 16500 nM | – | – |
| O=C(O)C(O)=Cc1ccc(OCc2ccccc2)cn1 [Compound I-3, 3-(5-Benzyloxypyridin-2-yl)-2-hydroxy acrylic acid] | 1140 nM | – | – |
| O=C(O)C(O)=Cc1ccc(OCc2ccc(F)cc2F)cn1 [Compound I-47, 3-[5-(2,4-Difluorobenzyloxy)pyridin-2-yl]-2-hydroxy acrylic acid] | 1630 nM | – | – |
| Cc1cc(/C(O)=C/c2cc(CCc3ccccc3)ncn2)no1 [Compound I-103] | – | high activity | – |
| CC(C)CCOc1ccc(/C=C(\O)C(=O)O)nc1 [Compound I-9, 3-(5-Isopentoxypyridin-2-yl)-2-hydroxy acrylic acid] | 11500 nM | – | – |
| O=C(O)/C(O)=C/c1ccc2ccccc2c1 [Compound X-2, reference compound] | > 467000 nM | – | – |
